Experimental data from US10428082B2, “Triazole derivatives of melampomagnolide B and methods of use thereof” (BioVentures, LLC, priority 2016, dated 2019).

Experiments:
Format in all cases: cell-based, human
U251 = assay: NCI 60 growth inhibition; details: Homo sapiens, U-251; U251, CNS Cancer, Table 2
CCRF-CEM = assay: NCI 60 growth inhibition; details: Homo sapiens, Leukemia, Table 2
OVCAR-5 = assay: NCI 60 growth inhibition; details: Homo sapiens; OVCAR-5, Ovarian Cancer, Table 2
CAKI-1 = assay: NCI 60 growth inhibition; details: Homo sapiens; CAKI-1, Renal Cancer, Table 2
K-562 = assay: NCI 60 growth inhibition; details: Homo sapiens, K562; K-562, Leukemia, Table 2
SK-MEL-28 = assay: NCI 60 growth inhibition; details: Homo sapiens; SK-MEL-28, Melanoma, Table 2
HT29 = assay: NCI 60 growth inhibition; details: Homo sapiens; HT-29, Colon Cancer, Table 2
KM12 = assay: NCI 60 growth inhibition; details: Homo sapiens; KM12, Colon Cancer, Table 2
MCF7 = assay: NCI 60 growth inhibition; details: Homo sapiens; MCF7, Breast Cancer, Table 2
SNB-19 = assay: NCI 60 growth inhibition; details: Homo sapiens; SNB-19, CNS Cancer, Table 2
HL-60(TB) = assay: NCI 60 growth inhibition; details: Homo sapiens; HL-60(TB), Leukemia, Table 2
OVCAR-8 = assay: NCI 60 growth inhibition; details: Homo sapiens; OVCAR-8, Ovarian Cancer, Table 2
ACHN = assay: NCI 60 growth inhibition; details: Homo sapiens, Renal Cancer, Table 2
SF-268 = assay: NCI 60 growth inhibition; details: Homo sapiens; SF-268, CNS Cancer, Table 2
DU-145 = assay: NCI 60 growth inhibition; details: Homo sapiens; DU-145, Prostate Cancer, Table 2
SW-620 = assay: NCI 60 growth inhibition; details: Homo sapiens; SW-620, Colon Cancer, Table 2
HCT-116 = assay: NCI 60 growth inhibition; details: Homo sapiens; HCT-116, Colon Cancer, Table 2
MDA-MB-435 = assay: NCI 60 growth inhibition; details: Homo sapiens; MDA-MB-435, Melanoma, Table 2
RPMI-8226 = assay: NCI 60 growth inhibition; details: Homo sapiens; RPMI-8226, Leukemia, Table 2
EKVX = assay: NCI 60 growth inhibition; details: Homo sapiens, Non-Small Cell Lung Cancer, Table 2
PC-3 = assay: NCI 60 growth inhibition; details: Homo sapiens; PC-3, Prostate Cancer, Table 2
SN12C = assay: NCI 60 growth inhibition; details: Homo sapiens, Renal Cancer, Table 2
BT-549 = assay: NCI 60 growth inhibition; details: Homo sapiens; BT-549, Breast Cancer, Table 2
UACC-257 = assay: NCI 60 growth inhibition; details: Homo sapiens; UACC-257, Melanoma, Table 2
OVCAR-4 = assay: NCI 60 growth inhibition; details: Homo sapiens; OVCAR-4, Ovarian Cancer, Table 2
[1] = system: primary AML cell line AML1; assay: Anti-leukemic activity, Annexin V/7-AAD flow cytometry; details: Homo sapiens, AML1, 24 h, 24 h of drug exposure; read-out: AML#1 (EC50)
Method: (§1) The newly synthesized triazole derivatives of melampomagnolide B were screened for anti-leukemic activity against M9 ENL1 and primary AML cell lines; the latter were obtained with informed consent from human patients. Evaluations were performed after 24 h of drug exposure using flow cytometric analysis by labeling with Annexin V and 7-aminoactinomycin D (7-AAD) to delineate apoptotic cell populations. In all experiments PTL was included as a reference control.

[2] = system: primary AML cell line AML2; assay: as above; details: Homo sapiens, 24 h, 24 h of drug exposure; read-out: AML#2 (EC50)
Method: as §1

| SMILES | GI50 (U251) | GI50 (CCRF-CEM) | GI50 (OVCAR-5) | GI50 (CAKI-1) | GI50 (K-562) | GI50 (SK-MEL-28) | GI50 (HT29) | GI50 (KM12) | GI50 (MCF7) | GI50 (SNB-19) | GI50 (HL-60(TB)) | GI50 (OVCAR-8) | GI50 (ACHN) | GI50 (SF-268) | GI50 (DU-145) | GI50 (SW-620) | GI50 (HCT-116) | GI50 (MDA-MB-435) | GI50 (RPMI-8226) | GI50 (EKVX) | also measured |
| --- | --- | --- | --- | --- | --- | --- | --- | --- | --- | --- | --- | --- | --- | --- | --- | --- | --- | --- | --- | --- | --- |
| C=C1C(=O)O[C@H]2[C@H]1CC/C(Cn1cc(-c3ccccc3)nn1)=C\CC[C@@]1(C)O[C@@H]21 [JVM 3-74, (1aR,7aS,10aS,10bS,E)-1a-Methyl-8-methylene-5-((4-phenyl-1H-1,2,3-triazol-1-yl)methyl)-2,3,6,7,7a,8,10a,10b-octahydrooxireno[2′,3′:9,10]cyclodeca[1,2-b]furan-9(1aH)-one] | 7960 nM | 990 nM | 5700 nM | 1280 nM | 1760 nM | 1060 nM | 1790 nM | 8480 nM | 1080 nM | 7870 nM | 1490 nM | 2310 nM | 940 nM | 5630 nM | 2190 nM | 1500 nM | 1170 nM | 2370 nM | 1710 nM | 6870 nM | GI50 (PC-3): 5650 nM; GI50 (SN12C): 4500 nM; GI50 (BT-549): 2650 nM; GI50 (UACC-257): 3780 nM; GI50 (OVCAR-4): 3220 nM |
| C=C1C(=O)O[C@H]2[C@H]1CC/C(Cn1cc(-c3cccc(Cl)c3)nn1)=C\CC[C@@]1(C)O[C@@H]21 [JVM 4-25, (1aR,7aS,10aS,10bS,E)-5((4-(3-Chlorophenyl)-1H-1,2,3-triazol-1-yl)methyl)-1a-methyl-8-methylene-2,3,6,7,7a,8,10a,10b-octahydrooxireno[2′,3′:9,10]cyclodeca[1,2-b]furan-9(1aH)-one] | 1610 nM | 200 nM | 1210 nM | 860 nM | 400 nM | 350 nM | 510 nM | 1780 nM | 310 nM | 2400 nM | 330 nM | 1310 nM | 180 nM | 1590 nM | 1000 nM | 330 nM | 160 nM | 590 nM | 500 nM | 1570 nM | GI50 (PC-3): 1980 nM; GI50 (SN12C): 1400 nM; GI50 (BT-549): 770 nM; GI50 (UACC-257): 1420 nM; GI50 (OVCAR-4): 1090 nM; EC50 [1]: 1000 nM; EC50 [2]: 1700 nM |
| C=C1C(=O)O[C@H]2[C@H]1CC/C(Cn1cc(-c3ccc(OC)cc3)nn1)=C\CC[C@@]1(C)O[C@@H]21 [JVM 4-24, (1aR,7aS,10aS,10bS,E)-5((4-(4-Methoxyphenyl)-1H-1,2,3-triazol-1-yl)methyl)-1a-methyl-8-methylene-2,3,6,7,7a,8,10a,10b-octahydrooxireno[2′,3′:9,10]cyclodeca[1,2-b]furan-9(1aH)-one] | 9450 nM | 290 nM | 1710 nM | 1030 nM | 1300 nM | 820 nM | 1230 nM | 3510 nM | 420 nM | 6920 nM | 1170 nM | 2590 nM | 290 nM | 2070 nM | 1110 nM | 490 nM | 480 nM | 1140 nM | 1870 nM | 2470 nM | GI50 (PC-3): 9350 nM; GI50 (SN12C): 1960 nM; GI50 (BT-549): 1310 nM; GI50 (UACC-257): 1780 nM; GI50 (OVCAR-4): 1520 nM; EC50 [1]: 2000 nM; EC50 [2]: 2500 nM |
